From paper PMC9516332 (Frontiers in Oncology, 2022)
Each block holds one compound with its values, some of them ahead of it.

Assays:
MEK2 = MEK2 (Homo sapiens, UniProt P36507); assay: Enzyme-linked immunosorbent assay (ELISA) of enzymatic activity, IC50; format: biochemical
MEK1 = MEK1 (Homo sapiens, UniProt Q02750); assay: as above; format: biochemical
MET-altered cell lines = settings: MANOVA
ALK = target: T1, ALK (Homo sapiens, UniProt Q9UM73); assay: Biochemical kinase assay (MSA), IC50
T1 construct: purchased Carna Biosciences (only by web pointer)
T1 sequence (Q9UM73 19-1620): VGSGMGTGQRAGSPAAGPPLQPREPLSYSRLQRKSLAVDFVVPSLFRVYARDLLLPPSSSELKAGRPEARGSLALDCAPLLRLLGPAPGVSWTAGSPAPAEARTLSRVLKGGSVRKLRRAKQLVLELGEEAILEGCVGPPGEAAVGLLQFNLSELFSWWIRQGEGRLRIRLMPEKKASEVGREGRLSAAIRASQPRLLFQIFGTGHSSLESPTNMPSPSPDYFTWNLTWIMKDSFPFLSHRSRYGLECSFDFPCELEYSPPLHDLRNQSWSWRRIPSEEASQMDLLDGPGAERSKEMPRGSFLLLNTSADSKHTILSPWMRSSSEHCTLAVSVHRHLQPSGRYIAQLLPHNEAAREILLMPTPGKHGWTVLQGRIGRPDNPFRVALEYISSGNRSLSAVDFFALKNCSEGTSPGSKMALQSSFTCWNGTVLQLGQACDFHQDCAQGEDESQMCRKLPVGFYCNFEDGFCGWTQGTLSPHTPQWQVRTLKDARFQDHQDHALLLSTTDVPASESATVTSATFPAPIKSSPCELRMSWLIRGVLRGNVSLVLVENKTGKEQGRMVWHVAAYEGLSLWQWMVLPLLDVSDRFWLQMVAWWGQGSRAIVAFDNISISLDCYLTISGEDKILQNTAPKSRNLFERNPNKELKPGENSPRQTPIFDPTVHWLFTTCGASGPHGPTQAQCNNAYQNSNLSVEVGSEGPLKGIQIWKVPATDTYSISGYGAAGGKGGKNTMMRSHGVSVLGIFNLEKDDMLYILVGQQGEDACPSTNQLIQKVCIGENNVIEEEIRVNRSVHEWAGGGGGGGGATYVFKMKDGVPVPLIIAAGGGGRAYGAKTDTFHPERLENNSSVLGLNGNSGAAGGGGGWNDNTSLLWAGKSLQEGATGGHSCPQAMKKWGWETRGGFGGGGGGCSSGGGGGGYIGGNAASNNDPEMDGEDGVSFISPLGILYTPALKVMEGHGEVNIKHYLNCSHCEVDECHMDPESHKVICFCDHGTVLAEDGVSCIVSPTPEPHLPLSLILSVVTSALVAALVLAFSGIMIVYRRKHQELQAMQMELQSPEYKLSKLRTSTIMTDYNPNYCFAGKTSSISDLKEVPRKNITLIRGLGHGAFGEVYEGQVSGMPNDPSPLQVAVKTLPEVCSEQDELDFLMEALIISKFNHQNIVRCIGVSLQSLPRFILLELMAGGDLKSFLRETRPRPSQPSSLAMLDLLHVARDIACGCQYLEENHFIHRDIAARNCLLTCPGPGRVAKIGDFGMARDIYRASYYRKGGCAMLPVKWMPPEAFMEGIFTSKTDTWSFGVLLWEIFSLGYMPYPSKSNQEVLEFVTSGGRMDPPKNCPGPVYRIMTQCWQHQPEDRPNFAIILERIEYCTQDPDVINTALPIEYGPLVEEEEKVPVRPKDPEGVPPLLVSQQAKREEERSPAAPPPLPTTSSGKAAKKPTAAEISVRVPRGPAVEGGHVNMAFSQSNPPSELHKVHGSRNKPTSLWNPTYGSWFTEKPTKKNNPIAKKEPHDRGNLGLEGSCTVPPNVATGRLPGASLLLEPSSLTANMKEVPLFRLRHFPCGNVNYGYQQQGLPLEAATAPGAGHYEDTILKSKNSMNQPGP

ROS = target: T2, ROS (Homo sapiens, UniProt P08922); assay: Biochemical kinase assay (MSA), IC50; settings: biochemical assays
T2 construct: purchased Carna Biosciences (only by web pointer)

ALK-altered cell lines = assay: Cell viability assay, ALK-altered versus ALK wild-type cell lines; format: cell-based; settings: MANOVA
FLT3 = target: T3, FLT3 (Homo sapiens, UniProt P36888); assay: Biochemical kinase assay (MSA), IC50; settings: biochemical assays
T3 construct: purchased Carna Biosciences (only by web pointer)

FGFR4 = target: T4, FGFR4 (Homo sapiens, UniProt P22455); assay: Biochemical kinase assay (MSA), IC50
T4 construct: purchased Carna Biosciences (only by web pointer)
T4 sequence (P22455 22-802): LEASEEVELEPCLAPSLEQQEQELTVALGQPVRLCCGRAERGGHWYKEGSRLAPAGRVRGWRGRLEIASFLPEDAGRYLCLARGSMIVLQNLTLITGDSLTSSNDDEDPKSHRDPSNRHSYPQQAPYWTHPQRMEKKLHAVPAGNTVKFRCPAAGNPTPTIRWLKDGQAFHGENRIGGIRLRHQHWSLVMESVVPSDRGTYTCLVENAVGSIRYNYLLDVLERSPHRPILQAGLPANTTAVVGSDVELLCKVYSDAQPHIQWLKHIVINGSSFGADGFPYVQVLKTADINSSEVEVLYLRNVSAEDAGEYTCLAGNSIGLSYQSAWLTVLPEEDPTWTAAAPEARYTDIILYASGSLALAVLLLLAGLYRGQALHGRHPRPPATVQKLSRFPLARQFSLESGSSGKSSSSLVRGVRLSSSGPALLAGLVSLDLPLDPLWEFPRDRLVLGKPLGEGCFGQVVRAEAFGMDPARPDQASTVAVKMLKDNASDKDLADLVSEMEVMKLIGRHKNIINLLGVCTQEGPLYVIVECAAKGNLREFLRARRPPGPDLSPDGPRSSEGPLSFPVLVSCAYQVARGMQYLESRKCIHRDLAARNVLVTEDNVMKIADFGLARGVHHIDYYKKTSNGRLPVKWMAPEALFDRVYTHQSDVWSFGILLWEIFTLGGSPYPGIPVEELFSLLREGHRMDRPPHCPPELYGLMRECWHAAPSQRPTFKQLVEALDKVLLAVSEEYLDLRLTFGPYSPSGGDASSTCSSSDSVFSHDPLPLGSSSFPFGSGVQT

RET = target: T5, RET (Homo sapiens, UniProt P07949); assay: Biochemical kinase assay (MSA), IC50; settings: biochemical assays
T5 construct: purchased Carna Biosciences (only by web pointer)

[1] = test system: RET-altered cell lines (LC-2/ad, TT); assay: Cell viability assay, RET-altered versus RET wild-type cell lines; format: cell-based; settings: for lower IC50 in RET-altered versus wild-type cell lines: MANOVA
FGFR1 = target: T6, FGFR1 (Homo sapiens, UniProt P11362); assay: Biochemical kinase assay (MSA), IC50
T6 construct: purchased Carna Biosciences (only by web pointer)
T6 sequence (P11362 22-822): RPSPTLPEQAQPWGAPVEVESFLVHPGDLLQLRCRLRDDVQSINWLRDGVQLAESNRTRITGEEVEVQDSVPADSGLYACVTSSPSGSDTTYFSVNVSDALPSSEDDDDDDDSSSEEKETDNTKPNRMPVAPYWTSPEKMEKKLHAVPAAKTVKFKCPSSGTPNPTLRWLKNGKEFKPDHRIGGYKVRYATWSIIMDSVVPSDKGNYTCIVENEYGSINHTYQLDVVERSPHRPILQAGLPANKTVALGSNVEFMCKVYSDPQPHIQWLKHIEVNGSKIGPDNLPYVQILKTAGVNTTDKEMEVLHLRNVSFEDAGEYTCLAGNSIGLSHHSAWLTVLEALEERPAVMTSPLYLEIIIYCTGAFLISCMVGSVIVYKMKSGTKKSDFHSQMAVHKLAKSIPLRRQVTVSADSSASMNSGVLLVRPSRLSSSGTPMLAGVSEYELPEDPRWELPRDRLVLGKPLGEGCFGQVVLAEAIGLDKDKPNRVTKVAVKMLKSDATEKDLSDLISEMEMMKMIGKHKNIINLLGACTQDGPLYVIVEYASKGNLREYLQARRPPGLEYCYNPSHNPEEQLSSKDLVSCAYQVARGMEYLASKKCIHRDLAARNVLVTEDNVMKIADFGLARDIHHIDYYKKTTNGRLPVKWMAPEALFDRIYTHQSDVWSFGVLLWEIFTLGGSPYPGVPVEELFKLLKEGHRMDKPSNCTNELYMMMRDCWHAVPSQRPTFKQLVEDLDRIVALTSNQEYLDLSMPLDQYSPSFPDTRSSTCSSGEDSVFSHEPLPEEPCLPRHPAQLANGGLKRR

FGFR2 = target: T7, FGFR2 (Homo sapiens, UniProt P21802); assay: Biochemical kinase assay (MSA), IC50
T7 construct: purchased Carna Biosciences (only by web pointer)
T7 sequence (P21802 22-821): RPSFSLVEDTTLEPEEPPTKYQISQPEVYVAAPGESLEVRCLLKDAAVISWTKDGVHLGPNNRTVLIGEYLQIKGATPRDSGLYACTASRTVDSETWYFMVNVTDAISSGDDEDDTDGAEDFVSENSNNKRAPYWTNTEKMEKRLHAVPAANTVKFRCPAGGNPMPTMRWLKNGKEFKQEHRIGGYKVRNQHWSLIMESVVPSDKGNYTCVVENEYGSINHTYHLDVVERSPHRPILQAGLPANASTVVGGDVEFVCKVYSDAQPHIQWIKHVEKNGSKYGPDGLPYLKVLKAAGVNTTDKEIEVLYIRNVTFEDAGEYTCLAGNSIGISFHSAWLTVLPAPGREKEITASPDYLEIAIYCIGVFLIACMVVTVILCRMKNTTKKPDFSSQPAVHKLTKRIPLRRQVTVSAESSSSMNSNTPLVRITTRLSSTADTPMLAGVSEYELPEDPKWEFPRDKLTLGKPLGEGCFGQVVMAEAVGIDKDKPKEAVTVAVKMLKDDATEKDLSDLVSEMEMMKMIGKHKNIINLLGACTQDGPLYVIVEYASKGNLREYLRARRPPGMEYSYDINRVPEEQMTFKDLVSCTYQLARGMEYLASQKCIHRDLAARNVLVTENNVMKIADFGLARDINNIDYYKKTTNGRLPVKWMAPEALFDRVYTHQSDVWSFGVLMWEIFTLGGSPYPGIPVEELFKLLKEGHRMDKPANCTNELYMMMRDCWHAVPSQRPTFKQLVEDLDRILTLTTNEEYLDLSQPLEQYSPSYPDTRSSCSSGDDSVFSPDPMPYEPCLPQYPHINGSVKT

HER2 = target: T8, HER2 (Homo sapiens, UniProt P04626); assay: Biochemical kinase assay (MSA), IC50
T8 construct: purchased Carna Biosciences (only by web pointer)

HER4 = target: T9, HER4 (Homo sapiens, UniProt Q15303); assay: Biochemical kinase assay (MSA), IC50
T9 construct: purchased Carna Biosciences (only by web pointer)

EGFR = target: T10, EGFR (Homo sapiens, UniProt P00533); assay: Biochemical kinase assay (MSA), IC50
T10 construct: purchased Carna Biosciences (only by web pointer)

[2] = test system: NCI-H1975 (EGFR p.L858R + p.T790M); assay: Cell viability assay; format: cell-based
[3] = test system: EGFR double mutants p.ex19del/T790M and p.L858R/T790M; assay: Biochemical kinase assays with EGFR mutants
BRK = target: T11, BRK (Homo sapiens, UniProt Q13882); assay: Biochemical kinase assay (MSA), IC50
T11 construct: purchased Carna Biosciences (only by web pointer)

Chain of MEK1 (Q02750 whole entry): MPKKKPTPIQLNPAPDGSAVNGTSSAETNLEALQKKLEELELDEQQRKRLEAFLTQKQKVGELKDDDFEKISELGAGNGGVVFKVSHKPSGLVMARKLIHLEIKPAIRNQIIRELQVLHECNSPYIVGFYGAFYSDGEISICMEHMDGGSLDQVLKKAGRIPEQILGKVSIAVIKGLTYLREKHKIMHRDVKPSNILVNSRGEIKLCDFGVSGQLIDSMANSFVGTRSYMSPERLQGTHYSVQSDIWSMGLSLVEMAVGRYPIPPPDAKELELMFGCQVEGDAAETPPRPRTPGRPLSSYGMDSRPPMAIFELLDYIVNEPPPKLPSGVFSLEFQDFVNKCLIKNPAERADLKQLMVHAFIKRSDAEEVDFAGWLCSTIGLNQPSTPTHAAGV
Chain of MEK2 (P36507 whole entry): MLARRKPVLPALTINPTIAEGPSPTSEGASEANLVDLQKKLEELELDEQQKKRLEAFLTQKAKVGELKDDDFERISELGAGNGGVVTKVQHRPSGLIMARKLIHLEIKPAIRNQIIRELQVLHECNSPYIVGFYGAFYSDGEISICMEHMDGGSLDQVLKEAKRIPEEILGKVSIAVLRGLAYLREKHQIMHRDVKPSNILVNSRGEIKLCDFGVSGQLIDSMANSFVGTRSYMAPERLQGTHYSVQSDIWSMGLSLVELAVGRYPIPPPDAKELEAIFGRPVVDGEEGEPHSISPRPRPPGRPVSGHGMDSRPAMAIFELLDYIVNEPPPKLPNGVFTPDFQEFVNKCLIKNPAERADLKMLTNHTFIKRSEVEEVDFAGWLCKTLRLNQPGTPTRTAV

Structure (SMILES): O=C(c1ccc(F)c(F)c1Nc1ccc(I)cc1F)N1CC(O)([C@@H]2CCCCN2)C1 [cobimetinib]
IC50 (MEK2): 0.19 µM | IC50 (MEK1): 0.061 µM

Structure (SMILES): CNC(=O)c1ccc(-c2cnc3ncc(Cc4ccc5ncccc5c4)n3n2)cc1F [capmatinib]
higher potency in MET-altered compared to MET wild-type cell lines (MET-altered cell lines): over 10,000 fold | IC50 (ALK): > 1 µM

higher IC50 on ROS1 compared to TRKA-C (ROS): around 100 fold | IC50 (ALK): > 1 µM
Structure (SMILES): O=C(Nc1cnn2ccc(N3CCC[C@@H]3c3cc(F)ccc3F)nc12)N1CC[C@H](O)C1 [larotrectinib]

Structure (SMILES): CCc1nc(C(N)=O)c(Nc2ccc(N3CCC(N4CCN(C)CC4)CC3)c(OC)c2)nc1NC1CCOCC1 [gilteritinib]
difference in IC50 between ALK-altered and ALK wild-type cell lines (ALK-altered cell lines): 55 fold | potency on FLT3 compared to midostaurin (FLT3): around eight-fold more potent

Structure (SMILES): CN1CCN(c2ccc(C(=O)Nc3n[nH]c4ccc(Cc5cc(F)cc(F)c5)cc34)c(NC3CCOCC3)c2)CC1 [entrectinib]
difference in IC50 between ALK-altered and ALK wild-type cell lines (ALK-altered cell lines): 12 fold

IC50 (MEK2): > 1 µM | IC50 (MEK1): 0.503 µM
Structure (SMILES): Cn1cnc2c(F)c(Nc3ccc(Br)cc3F)c(C(=O)NOCCO)cc21 [binimetinib]

IC50 (FGFR4): 0.26 µM | potency on RET compared to pralsetinib (RET): almost two-fold more potent | IC50 (FGFR1): 0.046 µM | IC50 (FGFR2): 0.016 µM
Structure (SMILES): COc1ccc(CN2C3CC2CN(c2ccc(-c4cc(OCC(C)(C)O)cn5ncc(C#N)c45)cn2)C3)cn1 [selpercatinib]
lower IC50 in RET-altered versus wild-type cell lines [1]: 232 fold | potency in the RET-altered cell lines compared to pralsetinib ([1]; cell viability): three-fold more potent

IC50 (HER2): 0.0033 µM | IC50 (HER4): 0.095 µM | IC50 (EGFR): 0.0067 µM
Structure (SMILES): Cc1cc(Nc2ncnc3ccc(NC4=NC(C)(C)CO4)cc23)ccc1Oc1ccn2ncnc2c1 [tucatinib]

Structure (SMILES): COc1cc2ncnc(Nc3ccc(F)c(Cl)c3)c2cc1NC(=O)/C=C/CN1CCCCC1 [dacomitinib]
lower potency in NCI-H1975 compared to osimertinib [2]: 28 fold | lower potency on double mutants (p.T790M plus sensitizing mutation) than on wild-type EGFR and sensitizing mutants [3]: 30 fold

IC50 (FGFR4): 0.183 µM | IC50 (FGFR1): 0.011 µM | IC50 (FGFR2): 0.027 µM
Structure (SMILES): CO[C@]1(C(=O)N[C@@H](C)c2ccc(-n3cc(F)cn3)nc2)CC[C@H](c2nc(C)cc(Nc3cc(C)[nH]n3)n2)CC1 [pralsetinib]
lower IC50 in RET-altered versus wild-type cell lines [1]: 76 fold

Structure (SMILES): C=CC(=O)N1CCC([C@@H]2CCNc3c(C(N)=O)c(-c4ccc(Oc5ccccc5)cc4)nn32)CC1 [zanubrutinib]
IC50 (BRK): 0.018 µM
